Where two headings read alike, the source gives them in different places. One block for each molecule: values may come before it.
Assays:
[1] = target: T1, Rat recombinant PDE10A (rPDE10A2) (Rattus norvegicus, UniProt Q9QYJ6); assay: In vitro assay PDE10A (SPA, 3H-cAMP); type: biochemical; settings: for IC50: read-out: PIC50 PDE10 (converted)
T1 construct: made in house; host or cells: Sf9 insect cells (baculovirus)
T1 sequence (Q9QYJ6 1-794): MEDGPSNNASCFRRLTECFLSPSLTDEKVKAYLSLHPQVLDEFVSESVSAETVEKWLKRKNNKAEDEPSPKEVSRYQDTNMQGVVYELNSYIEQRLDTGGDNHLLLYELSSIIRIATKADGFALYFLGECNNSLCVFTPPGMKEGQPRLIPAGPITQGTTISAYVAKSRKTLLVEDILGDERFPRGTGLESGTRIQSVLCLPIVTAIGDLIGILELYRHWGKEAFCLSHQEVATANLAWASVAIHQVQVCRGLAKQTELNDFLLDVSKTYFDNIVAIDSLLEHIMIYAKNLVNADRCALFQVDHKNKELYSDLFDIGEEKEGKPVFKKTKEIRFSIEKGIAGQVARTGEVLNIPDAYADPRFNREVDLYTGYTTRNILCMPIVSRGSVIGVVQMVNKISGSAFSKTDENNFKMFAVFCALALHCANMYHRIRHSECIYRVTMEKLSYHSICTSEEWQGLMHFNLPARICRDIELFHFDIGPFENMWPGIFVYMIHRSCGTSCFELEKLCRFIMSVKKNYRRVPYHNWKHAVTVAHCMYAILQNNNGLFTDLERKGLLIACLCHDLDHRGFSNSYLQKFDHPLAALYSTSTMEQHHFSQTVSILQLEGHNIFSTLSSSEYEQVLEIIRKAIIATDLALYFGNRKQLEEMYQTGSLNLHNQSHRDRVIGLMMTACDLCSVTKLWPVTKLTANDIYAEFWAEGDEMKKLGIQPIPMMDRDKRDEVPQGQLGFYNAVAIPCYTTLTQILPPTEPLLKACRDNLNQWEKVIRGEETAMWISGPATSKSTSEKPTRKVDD

[2] = tested on: Apomorphine-induced agitation; assay: Reversal of Apomorphine-induced Agitation in Rats (APO); type: in vivo, rat; settings: for SC Dose at max effect / SC Max effect (cumulative agitation score over 60 min) / SC LAD (lowest active dose): subcutaneous route
Description: Apomorphine (1.0 mg/kg, i.v.)-induced agitation was scored every 5 min over the first hour after injection of apomorphine. The score system was: (3) pronounced, (2) moderate, (1) slight, and (0) absent. […] For the present purpose, the cumulative agitation score over the whole 60-min observation period was used as a measure to describe the maximum effect (Max effect).

[3] = lowest dose at which ≥67% tested animals respond
[4] = -log IC50 expressed in mol/L, rPDE10A2, 60 nM cAMP

IC50 [1]: 44.7 nM
SMILES: Cc1nc2ccc(CN3CCCC(CO)C3)cc2n2c(-c3ccccc3Cl)nnc12 (stereo not shown) [Compound B-110]
SC Dose at max effect [2]: 10 mg/kg | SC Max effect (cumulative agitation score over 60 min) ([2]; apomorphine 1.0 mg/kg i.v.): 21 | SC LAD (lowest active dose) [2, 3]: > 10 mg/kg

IC50 [1]: 19.5 nM
SMILES: Cc1nc2ccc(CN3CCCC(O)C3)cc2n2c(-c3ccccc3Cl)nnc12 (stereo not shown) [Compound B-62]
SC Dose at max effect [2]: 10 mg/kg | SC Max effect (cumulative agitation score over 60 min) ([2]; apomorphine 1.0 mg/kg i.v.): 21 | SC LAD (lowest active dose) [2, 3]: > 10 mg/kg

IC50 [1]: 11.2 nM
SMILES: Cc1nc2ccc(C(=O)NCCN3CCOCC3)cc2n2c(-c3ccccc3Cl)nnc12 [Compound B-36]
SC Dose at max effect [2]: 10 mg/kg | SC Max effect (cumulative agitation score over 60 min) ([2]; apomorphine 1.0 mg/kg i.v.): 21 | SC LAD (lowest active dose) [2, 3]: > 10 mg/kg

IC50 [1]: 1780 nM
SMILES: CCCOc1ccc(Cl)c(-c2nnc3c(C)nc4ccc(CNCC)cc4n23)c1 [Compound B-111]

SMILES: CCNCc1ccc2nc(C)c3nnc(-c4cc(OC(C)C)ccc4Cl)n3c2c1 [Compound B-148]
PIC50 PDE10 [1, 4]: 5.07

SMILES: CCCCOc1cncc(-c2nnc3c(C)nc4ccc(CNC)cc4n23)c1 [Compound B-200]
IC50 [1]: > 10000 nM

IC50 [1]: > 10000 nM
SMILES: CCCCOc1ccc(F)c(-c2nnc3c(C)nc4cc(Br)ccc4n23)c1 [Compound B-175]

IC50 [1, 4]: 105 nM
SMILES: COc1ccc(Cl)c(-c2nnc3c(C)nc4ccc(CN5CCOCC5)cc4n23)c1 [Compound B-84]
PO Dose at Max Effect ([2]; oral route): 10 mg/kg | PO Max effect (cumulative agitation score over 60 min) ([2]; oral route, apomorphine 1.0 mg/kg i.v.): 21 | PO LAD (lowest active dose) ([2]; oral route, lowest dose at which ≥67% tested animals respond): > 10 mg/kg

SMILES: CCNCc1ccc2nc(C)c3nnc(-c4cncc(OCC5CC5)c4)n3c2c1 [Compound B-211]
IC50 [1, 4]: > 10000 nM

SMILES: CCCCOc1ccc(Cl)c(-c2nnc3c(C)nc4ccc(CNC)cc4n23)c1 [Compound B-192]
PIC50 PDE10 [1, 4]: 5.04

IC50 [1]: 18.2 nM
SMILES: Cc1nc2ccc(CN3CCC(O)C3)cc2n2c(-c3ccccc3Cl)nnc12 (stereo not shown) [Compound B-57]
SC Dose at max effect [2]: 10 mg/kg | SC Max effect (cumulative agitation score over 60 min) ([2]; apomorphine 1.0 mg/kg i.v.): 22 | SC LAD (lowest active dose) [2, 3]: > 10 mg/kg

IC50 [1]: > 10000 nM
SMILES: CCCCOc1ccc(F)c(-c2nnc3c(C)nc4cc(C#N)ccc4n23)c1 [Compound B-176]

PIC50 PDE10 [1, 4]: 5.11
SMILES: COCCOc1cncc(-c2nnc3c(C)nc4ccc(CN5CCOCC5)cc4n23)c1 [Compound B-203]

IC50 [1]: 107 nM
SMILES: Cc1nc2ccc(CN(C)C)cc2n2c(-c3ccccc3Cl)nnc12 [Compound B-107]
SC Dose at max effect [2]: 10 mg/kg | SC Max effect (cumulative agitation score over 60 min) ([2]; apomorphine 1.0 mg/kg i.v.): 20.5 | SC LAD (lowest active dose) [2, 3]: > 10 mg/kg

IC50 [1, 4]: 178 nM
SMILES: CCNC(=O)c1ccc2nc(C)c3nnc(-c4cccnc4C)n3c2c1 [Compound B-68]
SC Dose at max effect [2]: 10 mg/kg | SC Max effect (cumulative agitation score over 60 min) ([2]; apomorphine 1.0 mg/kg i.v.): 22 | SC LAD (lowest active dose) [2, 3]: > 10 mg/kg

IC50 [1]: 468 nM
SMILES: CCCOc1ccc(Cl)c(-c2nnc3c(C)nc4ccc(Br)cc4n23)c1 [Compound B-92]

SMILES: CCCOc1cncc(-c2nnc3c(C)nc4ccc(CN5CCOCC5)cc4n23)c1 [Compound B-119]
PIC50 PDE10 [1, 4]: 5.21

PIC50 PDE10 [1, 4]: 7.3
SMILES: Cc1nc2ccc(CNCc3ccccc3)cc2n2c(-c3ccccc3Cl)nnc12 [Compound B-99]

SMILES: Cc1nc2ccc(CN(C)C)cc2n2c(-c3cc(OC(C)C)ccc3Cl)nnc12 [Compound B-141]
PIC50 PDE10 [1, 4]: 5.8

SMILES: Cc1nc2ccc(CN3CCOCC3)cc2n2c(-c3cc(OC(C)C)ccc3Cl)nnc12 [Compound B-58]
PIC50 PDE10 [1, 4]: 5.73

SMILES: CCCOc1cncc(-c2nnc3c(C)nc4ccc(CNCC)cc4n23)c1 [Compound B-178]
IC50 [1]: > 10000 nM

SMILES: CCCCOc1ccc(Cl)c(-c2nnc3c(C)nc4ccc(CNC(C)C)cc4n23)c1 [Compound B-149]
PIC50 PDE10 [1, 4]: 5.38

SMILES: Cc1nc2ccc(CN(C)C)cc2n2c(-c3cncc(OCC4CC4)c3)nnc12 [Compound B-205]
IC50 [1]: > 10000 nM

SMILES: CCNCc1ccc2nc(C)c3nnc(-c4cc(OCC)ccc4Cl)n3c2c1 [Compound B-151a]
PIC50 PDE10 [1, 4]: 6.04

SMILES: Cc1nc2ccc(CN3CCOCC3)cc2n2c(-c3c(F)cccc3Cl)nnc12 [Compound B-23, 1-(2-Chloro-6-fluorophenyl)-4-methyl-8-(morpholin-4-ylmethyl)[1,2,4]triazolo[4,3-a]quinoxaline]
SC Dose at max effect [2]: 40 mg/kg | SC Max effect (cumulative agitation score over 60 min) ([2]; apomorphine 1.0 mg/kg i.v.): 1 | SC LAD (lowest active dose) [2, 3]: 0.63 mg/kg

SMILES: CCCCOc1cncc(-c2nnc3c(C)nc4ccc(CN5CCOCC5)cc4n23)c1.Cl [Compound B-17a, 1-(5-Butoxypyridin-3-yl)-4-methyl-8-(morpholin-4-ylmethyl) [1,2,4]triazolo[4,3-a]quinoxaline hydrochloride]
SC Dose at max effect [2]: 40 mg/kg | SC Max effect (cumulative agitation score over 60 min) ([2]; apomorphine 1.0 mg/kg i.v.): 23 | SC LAD (lowest active dose) [2, 3]: > 40 mg/kg

SMILES: CCNCc1ccc2nc(C)c3nnc(-c4ccccc4Cl)n3c2c1 [Compound B-20, N-{[1-(2-Chlorophenyl)-4-methyl[1,2,4]triazolo[4,3-a]quinoxalin-8-yl]methyl}-ethanamine]
SC Dose at max effect [2]: 10 mg/kg | SC Max effect (cumulative agitation score over 60 min) ([2]; apomorphine 1.0 mg/kg i.v.): 21 | SC LAD (lowest active dose) [2, 3]: > 10 mg/kg

IC50 [1]: 1740 nM
SMILES: CCCCOc1ccc(F)c(-c2nnc3c(C)nc4ccc(Br)cc4n23)c1 [Compound B-95]

IC50 [1, 4]: 295 nM
SMILES: CCOC(=O)c1ccc2nc(C)c3nnc(-c4ccccc4)n3c2c1 [Compound B-2a, Ethyl 4-methyl-1-phenyl[1,2,4]triazolo[4,3-a]quinoxaline-8-carboxylate]

IC50 [1, 4]: 12.3 nM
SMILES: CCNC(=O)c1ccc2nc(C)c3nnc(-c4c(Cl)cccc4Cl)n3c2c1 [Compound B-33]

IC50 [1]: 1480 nM
SMILES: CCCOc1ccc(Cl)c(-c2nnc3c(C)nc4ccc(CN(C)C)cc4n23)c1 [Compound B-112]

SMILES: Cc1nc2ccc(CN3CCOCC3)cc2n2c(-c3cncc(OCC4CC4)c3)nnc12 [Compound B-193]
PIC50 PDE10 [1, 4]: 5.44

SMILES: Cc1nc2ccc(CN3CCOCC3)cc2n2c(-c3ccccc3Cl)nnc12 [Compound B-19, 1-(2-Chlorophenyl)-4-methyl-8-(morpholin-4-ylmethyl)[1,2,4]triazolo[4,3-a]-quinoxaline]
SC Dose at max effect [2]: 5 mg/kg | SC Max effect (cumulative agitation score over 60 min) ([2]; apomorphine 1.0 mg/kg i.v.): 14 | SC LAD (lowest active dose) [2, 3]: 5 mg/kg

SMILES: CCCCOc1cncc(-c2nnc3c(C)nc4ccc(CNCC)cc4n23)c1 [Compound B-150]
IC50 [1]: > 10000 nM

SMILES: CCCCOc1cncc(-c2nnc3c(C)nc4ccc(CNC(C)C)cc4n23)c1 [Compound B-153]
IC50 [1, 4]: > 10000 nM

IC50 [1, 4]: 1820 nM
SMILES: CCNC(=O)c1ccc2nc(C)c3nnc(-c4cccnc4)n3c2c1 [Compound B-127]

SMILES: CCCCOc1cc(-c2nnc3c(C)nc4ccc(CN5CCOCC5)cc4n23)cnc1Cl [Compound B-202]
IC50 [1, 4]: > 10000 nM

PIC50 PDE10 [1, 4]: 5.57
SMILES: CCOC(=O)c1ccc2c(c1)nc(C)c1nnc(-c3ccccc3)n12 [Compound B-2b, Ethyl 4-methyl-1-phenyl[1,2,4]triazolo[4,3-a]quinoxaline-7-carboxylate]

IC50 [1]: 851 nM
SMILES: CCNC(=O)c1ccc2nc(C)c3nnc(-c4cnccc4C)n3c2c1 [Compound B-109]

IC50 [1]: 3550 nM
SMILES: CCCCOc1ccc(F)c(-c2nnc3c(C)nc4ccc(C#N)cc4n23)c1 [Compound B-120]

IC50 [1]: 1450 nM
SMILES: Cc1nc2ccc(CNC(C)C)cc2n2c(-c3cncc(OCC4CC4)c3)nnc12 [Compound B-210]

IC50 [1]: 5500 nM
SMILES: CCCCOc1ccc(Cl)c(-c2nnc3c(C)nc4ccc(CNCC)cc4n23)c1 [Compound B-101]

IC50 [1, 4]: 1350 nM
SMILES: CCNC(=O)c1ccc2nc(C)c3nnc(-c4cccnc4)n3c2c1 [Compound B-143]

IC50 [1]: 741 nM
SMILES: CCNC(=O)c1ccc2nc(C)c3nnc(-c4cncc(OC)c4)n3c2c1 [Compound B-80]

Source: US10604523B2, “1-aryl-4-methyl-[1,2,4]triazolo[4,3-a]quinoxaline derivatives” (Janssen Pharmaceutica NV, priority 2011, dated 2020)
